Measured values taken from patent publication US20080096832A1, “Method for Improving the Pharmacokinetics of an NNRTI” (Boehringer Ingelheim International GmbH, priority 2002, published 2008).
Like-named read-outs stand apart in the source and are kept apart here.

Experiments:
[1] = Pharmacokinetic drug-drug interaction of the compound of the formula I and ritonavir in healthy volunteers (single dose, alone and with RTV); assay type: in vivo, human; parameters: CL/F: unit not given here; settings: for AUC(0-t) / Cmax / Tmax / half-life / AUC: human, plasma
Procedure: A single-dose, single treatment group was studied to assess the pharmacokinetic drug-drug interaction potential between the protease inhibitors the compound of the formula I and ritonavir. The compound of the formula I was administered as a solution containing 5 or 12.5 mg of the compound of the formula I, with excipients, and ritonavir was administered as the 100-mg marketed product (Norvir) 12 hours preceding and co-administration with the compound of the formula I . Baseline pharmacokinetic data for the compound of the formula I was obtained as single doses up through 100 mg. The co-administered drugs were compared with baseline data. The study was conducted in healthy volunteers Pharmacokinetic analyses were based on the results obtained in these subjects. Pharmacokinetic parameters such as AUC, Cmax, tmax, oral clearance, and terminal half-life were determined using standard noncompartmental techniques.

[2] = target: CYP3A4 (Homo sapiens, UniProt P08684); experiment: Metabolism of the compound of the formula I by the cytochromes P450; assay type: in vitro ADME; settings: result in words
[3] = 12.5 mg oral single dose alone, mean
[4] = 25 mg oral single dose alone, mean
[5] = 50 mg oral single dose alone, mean
[6] = 75 mg oral single dose alone, mean
[7] = 100 mg oral single dose alone, mean
[8] = oral, 5 mg solution + RTV 100 mg, mean
[9] = oral, 5 mg, 5 mg alone (no RTV), mean
[10] = oral, 12.5 mg solution + RTV 100 mg, mean
[11] = oral, 12.5 mg, 12.5 mg alone (no RTV), mean (Table 1)
[12] = po, 12.5 mg, 12.5 mg oral single dose alone, mean (Table 2)
[13] = po, 25 mg, 25 mg oral single dose alone, mean
[14] = po, 50 mg, 50 mg oral single dose alone, mean
[15] = po, 75 mg, 75 mg oral single dose alone, mean
[16] = po, 100 mg, 100 mg oral single dose alone, mean
[17] = with ritonavir 100 mg versus alone

Sequence of CYP3A4 (P08684 whole entry): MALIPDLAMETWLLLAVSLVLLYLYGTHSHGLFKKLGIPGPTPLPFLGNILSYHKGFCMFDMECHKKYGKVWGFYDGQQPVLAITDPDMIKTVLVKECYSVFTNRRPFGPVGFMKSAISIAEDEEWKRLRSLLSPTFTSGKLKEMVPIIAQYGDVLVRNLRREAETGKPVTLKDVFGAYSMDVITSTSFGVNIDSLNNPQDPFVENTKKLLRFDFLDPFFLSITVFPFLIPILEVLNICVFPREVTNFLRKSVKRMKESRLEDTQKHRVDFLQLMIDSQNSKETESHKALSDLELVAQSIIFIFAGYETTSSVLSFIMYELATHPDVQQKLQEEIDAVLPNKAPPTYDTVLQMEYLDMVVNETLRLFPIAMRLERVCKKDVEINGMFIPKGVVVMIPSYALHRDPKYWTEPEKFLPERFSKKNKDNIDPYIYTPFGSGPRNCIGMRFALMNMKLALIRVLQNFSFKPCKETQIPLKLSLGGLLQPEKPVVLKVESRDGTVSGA

Question: With `CCN1c2ncc(CCOc3cc[n+]([O-])c4ccccc34)cc2C(=O)N(C)c2cccnc21` [the compound of the formula I, 5,11-Dihydro-11-ethyl-5-methyl-8-{2-{(1-oxido-4-quinolinyl)oxy}ethyl}-6H-dipyrido[3,2-b:2′,3′-e] [1,4]diazepin-6-one] as the molecule, how does the “% Renally eliminated as unchanged drug” value [1, 3] read?
Answer: Its value is 0.21%.

Question: What about the CL/F [1, 3] of the same molecule?
Answer: The CL/F was 243495.99.

Question: What about the “% Renally eliminated as unchanged drug” value [1, 4] of the same molecule?
Answer: Its value is 0.41%.

Question: And the CL/F [1, 4]?
Answer: Its CL/F is 200752.61.

Question: And the “% Renally eliminated as unchanged drug” value [1, 5]?
Answer: Its value is 0.48%.

Question: What about the CL/F [1, 5] of the same molecule?
Answer: The CL/F was 124815.56.

Question: And the “% Renally eliminated as unchanged drug” value [1, 6]?
Answer: The value was 0.60%.

Question: And the CL/F [1, 6]?
Answer: The CL/F was 263277.68.

Question: And the “% Renally eliminated as unchanged drug” value [1, 7]?
Answer: The value was 0.81%.

Question: What about the CL/F [1, 7] of the same molecule?
Answer: Its CL/F is 75634.54.

Question: And the AUC(0-t) ([1]; oral, 5 mg solution + RTV 100 mg (12 h before and co-administered), mean)?
Answer: The AUC(0-t) was 578 ng·h/mL.

Question: And the Cmax [1, 8]?
Answer: The Cmax was 22.8 ng/mL.

Question: What about the Tmax [1, 8] of the same molecule?
Answer: The Tmax was 4 h.

Question: And the half-life ([1]; oral, 5 mg solution + RTV 100 mg, mean, read-out: half-life (converted))?
Answer: The half-life was 15.3 h.

Question: What about the AUC(0-t) [1, 9] of the same molecule?
Answer: Its AUC(0-t) is 13.6 ng·h/mL.

Question: What about the Cmax [1, 9] of the same molecule?
Answer: The Cmax was 3.64 ng/mL.

Question: What about the Tmax [1, 9] of the same molecule?
Answer: Its Tmax is 1.5 h.

Question: What about the AUC(0-t) ([1]; oral, 12.5 mg solution + RTV 100 mg (12 h before and co-administered), mean) of the same molecule?
Answer: The AUC(0-t) was 1700 ng·h/mL.

Question: What about the Cmax [1, 10] of the same molecule?
Answer: Its Cmax is 74.1 ng/mL.

Question: And the Tmax [1, 10]?
Answer: Its Tmax is 3.59 h.

Question: What about the half-life ([1]; oral, 12.5 mg solution + RTV 100 mg, mean, read-out: half-life (converted)) of the same molecule?
Answer: The half-life was 15.9 h.

Question: And the AUC(0-t) [1, 11]?
Answer: Its AUC(0-t) is 57.1 ng·h/mL.

Question: What about the Cmax [1, 11] of the same molecule?
Answer: Its Cmax is 14.8 ng/mL.

Question: What about the Tmax [1, 11] of the same molecule?
Answer: The Tmax was 1 h.

Question: And the half-life ([1]; oral, 12.5 mg, 12.5 mg alone (no RTV), mean (Table 1), read-out: half-life (converted))?
Answer: Its half-life is 4.1 h.

Question: And the half-life ([1]; oral, co-administration with ritonavir 100 mg, read-out: half-life upon co-administration with ritonavir (converted))?
Answer: Its half-life is 15 h.

Question: And the half-life ([1]; oral, without ritonavir, single dose range of 1-100 mg, read-out: half-life without ritonavir (converted))?
Answer: Its half-life is about 2 h.

Question: And the Cmax [1, 12]?
Answer: Its Cmax is 14.8 ng/mL.

Question: What about the Tmax [1, 12] of the same molecule?
Answer: Its Tmax is 1 h.

Question: And the half-life ([1]; po, 12.5 mg, 12.5 mg oral single dose alone, mean (Table 2), read-out: Half-life (converted))?
Answer: Its half-life is 4.1 h.

Question: What about the Cmax [1, 13] of the same molecule?
Answer: The Cmax was 41.6 ng/mL.

Question: What about the Tmax [1, 13] of the same molecule?
Answer: Its Tmax is 0.83 h.

Question: And the half-life ([1]; po, 25 mg, 25 mg oral single dose alone, mean, read-out: Half-life (converted))?
Answer: Its half-life is 3.44 h.

Question: What about the Cmax [1, 14] of the same molecule?
Answer: The Cmax was 164 ng/mL.

Question: And the Tmax [1, 14]?
Answer: Its Tmax is 0.67 h.

Question: And the half-life ([1]; po, 50 mg, 50 mg oral single dose alone, mean, read-out: Half-life (converted))?
Answer: Its half-life is 2.5 h.

Question: And the Cmax [1, 15]?
Answer: Its Cmax is 348 ng/mL.

Question: And the Tmax [1, 15]?
Answer: The Tmax was 0.67 h.

Question: And the half-life ([1]; po, 75 mg, 75 mg oral single dose alone, mean, read-out: Half-life (converted))?
Answer: The half-life was 2.21 h.

Question: What about the Cmax [1, 16] of the same molecule?
Answer: Its Cmax is 937 ng/mL.

Question: And the Tmax [1, 16]?
Answer: Its Tmax is 0.55 h.

Question: And the half-life ([1]; po, 100 mg, 100 mg oral single dose alone, mean, read-out: Half-life (converted))?
Answer: Its half-life is 1.86 h.

Question: What about the AUC ([1]; 12.5 mg oral single dose alone, mean (Table 2)) of the same molecule?
Answer: Its AUC is 63.1 ng·h/mL.

Question: And the AUC [1, 4]?
Answer: Its AUC is 139 ng·h/mL.

Question: What about the AUC [1, 5] of the same molecule?
Answer: The AUC was 437 ng·h/mL.

Question: What about the AUC [1, 6] of the same molecule?
Answer: Its AUC is 817 ng·h/mL.

Question: What about the AUC [1, 7] of the same molecule?
Answer: Its AUC is 1390 ng·h/mL.

Question: And the “increase of AUC (plasma concentrations as measured by area under the curve) in the presence of ritonavir” value [1, 17]?
Answer: Its value is about 40 fold.

Question: What about the “increase of mean Cmax in the presence of ritonavir” value [1, 17] of the same molecule?
Answer: The value was 5-6 fold.

Question: What about the “metabolism by the cytochromes P450, especially the CYP3A4 isoform” value [2] of the same molecule?
Answer: Its value is “surprisingly rapid metabolism”.
